Structures are written as SMILES. Like-named read-outs stand apart in the source and are kept apart here.

Series [1] can be described thus: Solubility studies of benzimidazoles (triclabendazole, oxfendazole, albendazole, ricobendazole) in different organic solvents. In kind it is physicochemical. How it is done: As a comparison trials were conducted to determine the solubility of various members of the benzimidazole family in different solvents.
But more importantly it was discovered that triclabendazole is extremely soluble in 2-pyrrolidone and PEG 400 with more than 500 mg of triclabendazole capable of being dissolved in a ml of these solvents. This is particularly advantageous as it allows for formulations of low volume to be formulated for delivery to cattle and other animals.

Series [2] can be described thus: Solubility studies of triclabendazole in different alcohols. In kind it is physicochemical.
Setting [3] is: solvents such as benzyl alcohol, propylene glycol, NMP, 2-pyrollidone, PEG, glycerol formal and butyl dioxitol.

For the compound `CCCSc1ccc2nc(NC(=O)OC)[nH]c2c1` [albendazole], the “Solubility (in words)” value in series [1] (setting [3]) was “either insoluble or so insignificantly soluble”.

Turning to `COC(=O)Nc1nc2ccc([S+]([O-])c3ccccc3)cc2[nH]1` (centres unmarked) [oxfendazole], the “Solubility (in words)” value in series [1] is listed as “either insoluble or so insignificantly soluble”.

For the compound `CCC[S+]([O-])c1ccc2[nH]c(NC(=O)OC)nc2c1` (centres unmarked) [ricobendazole], the “Solubility (in words)” value in series [1] (setting [3]) is recorded as “either insoluble or so insignificantly soluble”.

As for `CSc1nc2cc(Cl)c(Oc3cccc(Cl)c3Cl)cc2[nH]1` [triclabendazole, 5-Chloro-6-(3,3-dichlorophenoxy)-2-methylthio-1H-benzimidazole], the “Amount dissolved” value in series [2] (solvent 1-butanol) was 117.5 mg/mL; in series [2] (solvent 1-hexanol), 117.5 mg/mL; in series [2] (solvent Ethyl alcohol) it was 88.88 mg/mL; in series [2] (solvent Isopropyl alcohol), 117.5 mg/mL; in series [2] (solvent Methyl alcohol), 88.88 mg/mL; in series [1] (solvent Benzyl Alcohol, max solubility), 357.14 mg/mL. Moreover, the “Amount dissolved” value in series [1] (solvent DGBE (butyl dioxitol), max solubility) was 166.66 mg/mL; in series [1] (solvent Glyceryl Formal, max solubility), 90.91 mg/mL; in series [1] (solvent NMP (N-methyl pyrrolidone), max solubility) it was 321.43 mg/mL; in series [1] (solvent Propylene Glycol, max solubility), 136.36 mg/mL. For the same compound, the “Quantity dissolved in solvent” value in series [2] (solvent 1-butanol) amounted to 2 gm/15 ml; in series [2] (solvent 1-hexanol), 2 gm/15 ml; in series [2] (solvent Ethyl alcohol), 2 gm/20 ml; in series [2] (solvent Isopropyl alcohol), 2 gm/15 ml; in series [2] (solvent Methyl alcohol), 2 gm/20 ml. Also, in series [1], the “Solubility (in words)” value is on record as “more soluble generally”. In addition, the “Quantity dissolved in 10 ml solvent” value was 10.0 g (flowable in series [1] (in 10 ml 2-pyrrolidone, flowable in nature); 5.0 g (Max in series [1] (in 10 ml Benzyl Alcohol, max solubility); 2.0 g (Max in series [1] (in 10 ml DGBE (butyl dioxitol), max solubility); 1 g (Max in series [1] (in 10 ml Glyceryl Formal, max solubility); 4.5 g (Max in series [1] (in 10 ml NMP, max solubility); 10.0 g (flowable in series [1] (in 10 ml PEG400, flowable in nature). For the same compound, in series [1] (in 10 ml Propylene Glycol, max solubility), the “Quantity dissolved in 10 ml solvent” value is reported as 1.5 g (Max.

Source of the values: patent publication US20080249153A1, “ANTHELMINTIC FORMULATIONS” (priority 2005, published 2008).
